Source: the supplement of paper PMC10307832

Experiments:
Experiment in all cases: relative viability (nuclei count vs DMSO), 5 days (fraction); higher = more cells survive
[1] = test system: LU99A
Procedure, shortened: (§1)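 Lung cancer cell lines, seeded in 1536-well plates, were treated the following day by pin tool with a single drug or with five library-drug doses (not always all listed) in √10 steps on top of a fixed anchor-drug dose. Cells were fixed and nuclei stained in one step after 5 days, and nuclei were counted. Relative viability is the nuclei count for treated wells divided by that for vehicle wells, reported as medians of duplicate plates.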

[2] = test system: NCI-H1395
Procedure, shortened: as §1

[3] = test system: NCI-H2228
Procedure, shortened: as §1

[4] = test system: UMC-11
Procedure, shortened: as §1

[5] = test system: NCI-H2087
Procedure, shortened: as §1

[6] = test system: RERF-LC-KJ
Procedure, shortened: as §1

[7] = test system: NCI-H1793
Procedure, shortened: as §1

[8] = test system: NCI-H3122
Procedure, shortened: as §1

[9] = test system: LOU-NH91
Procedure, shortened: as §1

[10] = test system: EPLC-272H
Procedure, shortened: as §1

[11] = test system: CAL-12T
Procedure, shortened: as §1

[12] = test system: NCI-H460
Procedure, shortened: as §1

[13] = test system: NCI-H2405
Procedure, shortened: as §1

[14] = test system: NCI-H1651
Procedure, shortened: as §1

[15] = test system: NCI-H1755
Procedure, shortened: as §1

[16] = test system: ChaGo-K-1
Procedure, shortened: as §1

[17] = test system: NCI-H1944
Procedure, shortened: as §1

[18] = test system: NCI-H2170
Procedure, shortened: as §1

[19] = test system: HCC-78
Procedure, shortened: as §1

[20] = test system: NCI-H1734
Procedure, shortened: as §1

[21] = test system: HCC-366
Procedure, shortened: as §1

[22] = test system: PC-3 [JPC-3]
Procedure, shortened: as §1

[23] = test system: LC-2-ad
Procedure, shortened: as §1

COc1cc(N2CCC(C(N)=O)CC2)ccc1Nc1nc(N)c(Cl)c(Nc2ccccc2S(=O)(=O)C(C)C)n1 [HG-5-88-01] + CC1(C)CCC(c2ccc(Cl)cc2)=C(CN2CCN(c3ccc(C(=O)NS(=O)(=O)c4ccc(N[C@H](CCN5CCOCC5)CSc5ccccc5)c(S(=O)(=O)C(F)(F)F)c4)cc3)CC2)C1 [Navitoclax] (partner 0.5 µM)
relative viability ([1]; first compound 0.04 µM): 0.781 | relative viability ([1]; first compound 0.1265 µM): 0.96 | relative viability ([1]; first compound 0.4 µM): 0.75 | relative viability ([1]; first compound 1.265 µM): 0.764 | relative viability ([1]; first compound 4 µM): 0.996 | relative viability ([2]; first compound 0.04 µM): 1.08 | relative viability ([2]; first compound 0.1265 µM): 1.18 | relative viability ([2]; first compound 0.4 µM): 1.25 | relative viability ([2]; first compound 1.265 µM): 1.03 | relative viability ([2]; first compound 4 µM): 1.09 | relative viability ([3]; first compound 0.04 µM): 0.65 | relative viability ([3]; first compound 0.1265 µM): 0.295 | relative viability ([3]; first compound 0.4 µM): 0.485 | relative viability ([3]; first compound 1.265 µM): 0.417 | relative viability ([3]; first compound 4 µM): 0.27 | relative viability ([4]; first compound 0.04 µM): 0.338 | relative viability ([4]; first compound 0.1265 µM): 0.376 | relative viability ([4]; first compound 0.4 µM): 0.333 | relative viability ([4]; first compound 1.265 µM): 0.322 | relative viability ([4]; first compound 4 µM): 0.303 | relative viability ([5]; first compound 0.04 µM): 0.902 | relative viability ([5]; first compound 0.1265 µM): 1.06 | relative viability ([5]; first compound 0.4 µM): 1.03 | relative viability ([5]; first compound 1.265 µM): 0.971 | relative viability ([5]; first compound 4 µM): 0.943 | relative viability ([6]; first compound 0.04 µM): 1.05 | relative viability ([6]; first compound 0.1265 µM): 0.846 | relative viability ([6]; first compound 0.4 µM): 0.954 | relative viability ([6]; first compound 1.265 µM): 0.941 | relative viability ([6]; first compound 4 µM): 0.5 | relative viability ([7]; first compound 0.1265 µM): 0.409 | relative viability ([7]; first compound 0.4 µM): 0.473 | relative viability ([7]; first compound 1.265 µM): 0.296 | relative viability ([7]; first compound 4 µM): 0.438 | relative viability ([8]; first compound 0.04 µM): 0.905 | relative viability ([8]; first compound 0.1265 µM): 0.611 | relative viability ([8]; first compound 0.4 µM): 0.444 | relative viability ([8]; first compound 1.265 µM): 0.198 | relative viability ([8]; first compound 4 µM): 0.255 | relative viability ([9]; first compound 0.04 µM): 0.72 | relative viability ([9]; first compound 0.1265 µM): 0.693 | relative viability ([9]; first compound 0.4 µM): 0.605 | relative viability ([9]; first compound 1.265 µM): 0.378 | relative viability ([9]; first compound 4 µM): 0.468 | relative viability ([10]; first compound 0.04 µM): 1.22 | relative viability ([10]; first compound 0.1265 µM): 1.05 | relative viability ([10]; first compound 0.4 µM): 1.28 | relative viability ([10]; first compound 1.265 µM): 0.982 | relative viability ([10]; first compound 4 µM): 0.27 | relative viability ([11]; first compound 0.04 µM): 1.26 | relative viability ([11]; first compound 0.1265 µM): 1.15 | relative viability ([11]; first compound 0.4 µM): 1.18 | relative viability ([11]; first compound 1.265 µM): 1.14 | relative viability ([11]; first compound 4 µM): 1.02 | relative viability ([12]; first compound 0.04 µM): 0.975 | relative viability ([12]; first compound 0.1265 µM): 1.12 | relative viability ([12]; first compound 0.4 µM): 0.901 | relative viability ([12]; first compound 1.265 µM): 1.15 | relative viability ([12]; first compound 4 µM): 1.06 | relative viability ([13]; first compound 0.04 µM): 0.99 | relative viability ([13]; first compound 0.1265 µM): 1.03 | relative viability ([13]; first compound 0.4 µM): 0.825 | relative viability ([13]; first compound 1.265 µM): 0.319 | relative viability ([13]; first compound 4 µM): 0.784 | relative viability ([14]; first compound 0.04 µM): 1.27 | relative viability ([14]; first compound 0.1265 µM): 1.04 | relative viability ([14]; first compound 0.4 µM): 1.08 | relative viability ([14]; first compound 1.265 µM): 1.05 | relative viability ([14]; first compound 4 µM): 1.04 | relative viability ([15]; first compound 0.1265 µM): 0.991 | relative viability ([15]; first compound 0.4 µM): 1.01 | relative viability ([15]; first compound 1.265 µM): 1.01 | relative viability ([15]; first compound 4 µM): 1.01 | relative viability ([16]; first compound 0.04 µM): 1.05 | relative viability ([16]; first compound 0.1265 µM): 1.09 | relative viability ([16]; first compound 0.4 µM): 0.726 | relative viability ([16]; first compound 1.265 µM): 1.12 | relative viability ([16]; first compound 4 µM): 0.762 | relative viability ([17]; first compound 0.04 µM): 1.03 | relative viability ([17]; first compound 0.1265 µM): 1.15 | relative viability ([17]; first compound 0.4 µM): 1.11 | relative viability ([17]; first compound 1.265 µM): 0.985 | relative viability ([17]; first compound 4 µM): 1.04 | relative viability ([18]; first compound 0.04 µM): 0.554 | relative viability ([18]; first compound 0.1265 µM): 0.574 | relative viability ([18]; first compound 0.4 µM): 0.674 | relative viability ([18]; first compound 1.265 µM): 0.311 | relative viability ([18]; first compound 4 µM): 0.73 | relative viability ([19]; first compound 0.04 µM): 0.749 | relative viability ([19]; first compound 0.1265 µM): 0.555 | relative viability ([19]; first compound 0.4 µM): 0.363 | relative viability ([19]; first compound 1.265 µM): 0.158 | relative viability ([19]; first compound 4 µM): 0.297 | relative viability ([20]; first compound 0.04 µM): 0.771 | relative viability ([20]; first compound 0.1265 µM): 0.858 | relative viability ([20]; first compound 0.4 µM): 0.943 | relative viability ([20]; first compound 1.265 µM): 0.827 | relative viability ([20]; first compound 4 µM): 0.757 | relative viability ([21]; first compound 0.04 µM): 0.952 | relative viability ([21]; first compound 0.1265 µM): 1.04 | relative viability ([21]; first compound 0.4 µM): 0.79 | relative viability ([21]; first compound 1.265 µM): 1.02 | relative viability ([21]; first compound 4 µM): 1.29 | relative viability ([22]; first compound 0.04 µM): 0.837 | relative viability ([22]; first compound 0.1265 µM): 0.83 | relative viability ([22]; first compound 0.4 µM): 0.841 | relative viability ([22]; first compound 1.265 µM): 0.753 | relative viability ([22]; first compound 4 µM): 0.751 | relative viability ([23]; first compound 0.04 µM): 0.444 | relative viability ([23]; first compound 0.1265 µM): 0.45 | relative viability ([23]; first compound 0.4 µM): 0.477 | relative viability ([23]; first compound 1.265 µM): 0.379 | relative viability ([23]; first compound 4 µM): 0.278
